# Molecular target: human FPR2 receptor (Homo sapiens (Human), UniProt P25090)
# Assay: FLIPR Ca+2 response in HEK-Gα16 cells stably expressing the human FPR2 receptor
# Format: cell-based
# Design: FPR2 (% eff): unit not given here
# Conditions: Table 4
# Method in brief: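 HEK-Gα16 cells stably expressing human FPR2, loaded with 2 μM Fluo-4 in HBSS/20 mM HEPES for 40 min at 37° C., then washed. Ligands added in HBSS/Hepes and Ca+2 responses recorded on FLIPR in relative fluorescence units.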
# human FPR2 receptor, sequence (P25090 whole entry): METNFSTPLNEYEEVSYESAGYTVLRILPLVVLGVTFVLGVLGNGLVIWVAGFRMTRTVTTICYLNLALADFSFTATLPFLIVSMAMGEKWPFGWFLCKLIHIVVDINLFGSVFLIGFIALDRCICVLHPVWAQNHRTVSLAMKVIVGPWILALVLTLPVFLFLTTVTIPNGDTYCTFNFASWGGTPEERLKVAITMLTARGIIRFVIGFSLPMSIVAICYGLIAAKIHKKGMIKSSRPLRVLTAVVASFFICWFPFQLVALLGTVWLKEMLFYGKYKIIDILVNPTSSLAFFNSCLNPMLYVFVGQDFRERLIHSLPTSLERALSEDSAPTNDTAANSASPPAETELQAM
row,SMILES,EC50 [nM]
1,"CC1(CCc2cccc(O)c2)NC(=O)N(NC(=O)Nc2ccc(Br)cc2)C1=O (centres unmarked) [Compound 108, 1-(4-bromophenyl)-3-{4-[2-(3-hydroxyphenyl)ethyl]-4-methyl-2,5-dioxoimidazolidin-1-yl}urea]",2.1
2,CCC(CC)(NC(=O)Nc1ccc(Br)cc1)C(=O)NCC(=O)O [Compound 113],18.7
3,"CSc1ccc(NC(=O)N[C@@H](CC(C)C)C(=O)NCC(=O)O)cc1 [Compound 130, {[(2S)-4-methyl-2-({[4-(methylsulfanyl)phenyl]carbamoyl}amino)pentanoyl]amino}acetic acid]",3

# Same assay, conditions: Table 4; value in brackets, given mostly as fraction
row,SMILES,FPR2 (% eff)
1,"CC1(CCc2ccc(O)c(F)c2)NC(=O)N(NC(=O)Nc2ccc(Br)cc2F)C1=O (centres unmarked) [Compound 98, 1-(4-bromo-2-fluorophenyl)-3-{4-[2-(3-fluoro-4-hydroxyphenyl)ethyl]-4-methyl-2,5-dioxoimidazolidin-1-yl}urea]",0.91
2,"CC1(CCc2ccc(O)c(F)c2)NC(=O)N(NC(=O)Nc2ccc(Br)cc2)C1=O (centres unmarked) [Compound 99, 1-(4-bromophenyl)-3-{4-[2-(3-fluoro-4-hydroxyphenyl)ethyl]-4-methyl-2,5-dioxoimidazolidin-1-yl}urea]",1.0
3,"CCOP(=O)(O)CNC(=O)[C@H](CC(C)C)NC(=O)Nc1ccc(Br)cc1 [Compound 105, ethyl hydrogen ({[(2S)-2-{[(4-bromophenyl)carbamoyl]amino}-4-methylpentanoyl]amino}methyl)phosphonate]",0.88
4,"CC1(CCc2ccccc2O)NC(=O)N(NC(=O)Nc2ccc(Br)cc2F)C1=O (centres unmarked) [Compound 106, 1-(4-bromo-2-fluorophenyl)-3-[4-[2-[2-hydroxyphenyl)ethyl]-4-methyl-2,5-dioxoimidazolidin-1-yl}urea]",0.91
5,"CC1(CCc2cccc(O)c2)NC(=O)N(NC(=O)Nc2ccc(Br)cc2F)C1=O (centres unmarked) [Compound 107, 1-(4-bromo-2-fluorophenyl)-3-{4-[2-(3-hydroxyphenyl)ethyl]-4-methyl-2,5-dioxoimidazolidin-1-yl}urea]",0.79
6,"CC1(CCc2cccc(O)c2)NC(=O)N(NC(=O)Nc2ccc(Br)cc2)C1=O (centres unmarked) [Compound 108, 1-(4-bromophenyl)-3-{4-[2-(3-hydroxyphenyl)ethyl]-4-methyl-2,5-dioxoimidazolidin-1-yl}urea]",100
7,"CCOP(=O)(CNC(=O)[C@@H](NC(=O)Nc1ccc(Br)cc1)[C@@H](C)CC)OCC [Compound 114, diethyl ({[(2S,3S)-2-{[(4-bromophenyl)carbamoyl]amino}-3-methylpentanoyl]amino}methyl)phosphonate]",1.0
8,"CCOP(=O)(O)CNC(=O)[C@@H](NC(=O)Nc1ccc(Br)cc1)[C@@H](C)CC [Compound 115, ethyl hydrogen ({[(2S,3S)-2-{[(4-bromophenyl)carbamoyl]amino}3-methylpentanoyl]amino}methyl)phosphonate]",0.88
9,"CC(C)C[C@H](NC(=O)Nc1ccc(Br)cc1)C(=O)NCc1cc(O)no1 [Compound 116, (2S)-2-{[(4-bromophenyl)carbamoyl]amino}-N-[(3-hydroxy-1,2-oxazol-5-yl)methyl]-4-methylpentanamide]",1.0
10,"CCC[C@H](NC(=O)Nc1ccc(Br)cc1)C(=O)NCP(=O)(OCC)OCC [Compound 117, diethyl ({[(2S)-2-{[(4-bromophenyl)carbamoyl]amino}pentanoyl]amino}methy) phosphonate]",1.0
11,"CCOP(=O)(CNC(=O)[C@H](Cc1ccccc1)NC(=O)Nc1ccc(Br)cc1)OCC [Compound 118, diethyl ({[(2S)-2-{[(4-bromophenyl)carbamoyl]amino}-3-phenylpropanoyl]amino}methyl)phosphonate]",0.93
12,"CCC[C@H](NC(=O)Nc1ccc(Br)cc1)C(=O)NCP(=O)(O)OCC [Compound 123, ethyl hydrogen ({[(2S)-2-{[(4-bromophenyl)carbamoyl]amino}pentanoyl]amino}methyl) phosphonate]",0.96
13,"CCOP(=O)(O)CNC(=O)[C@H](Cc1ccccc1)NC(=O)Nc1ccc(Br)cc1 [Compound 126, ethyl hydrogen ({[(2S)-2-{[(4-bromophenyl)carbamoyl]amino}3-phenylpropanoyl]amino}methyl)phosphonate]",1.0
14,"CCOP(=O)(CNC(=O)[C@H](CC(C)C)NC(=O)Nc1ccc(C(F)(F)F)cc1)OCC [Compound 134, diethyl ({[(2S)-4-methyl-2-({[4-(trifluoromethyl)phenyl]carbamoyl}amino)pentanoyl]amino}methyl)phosphonate]",0.97
15,"CCOP(=O)(O)CNC(=O)[C@H](CC(C)C)NC(=O)Nc1ccc(C(F)(F)F)cc1 [Compound 135, ethyl hydrogen ({[(2S)-4-methyl-2-({[4-(trifluoromethyl)phenyl]carbamoyl}amino)pentanoyl]amino}methyl)phosphonate]",0.91
16,"CCOP(=O)(CNC(=O)[C@H](CC(C)C)NC(=O)Nc1ccc(SC)cc1)OCC [Compound 138, diethyl ({[(2S)-4-methyl-2-({[4-(methylsulfanyl)phenyl]carbamoyl}amino)pentanoyl]amino}methyl)phosphonate]",0.91

# Further lines, results first:
row,FPR2 (% eff),SMILES
1,1.0,"CCC[C@H](NC(=O)[C@H](CC(C)C)NC(=O)Nc1ccc(Br)cc1)C(=O)OC(C)(C)C [Compound 100, tert-butyl (2S)-2-{[(2S)-2-{[(4-bromophenyl)carbamoyl]amino}-4-methylpentanoyl]amino} pentanoate]"
2,0.95,"CCC[C@H](NC(=O)[C@H](CC(C)C)NC(=O)Nc1ccc(Br)cc1)C(=O)O [Compound 101, (2S)-2-{[(2S)-2-{[(4-bromophenyl)carbamoyl]amino}-4-methylpentanoyl]amino} pentanoic acid]"
3,0.99,"CCC[C@H](NC(=O)[C@H](CC(C)C)NC(=O)Nc1ccc(Br)cc1)C(N)=O [Compound 102, (2S)-N-[(2S)-1-amino-1-oxopentan-2-yl]-2-{[(4-bromophenyl)carbamoyl]amino}-4-methylpentanamide]"
4,1.0,"CC(C)C[C@H](NC(=O)Nc1ccc(Br)cc1)C(=O)N[C@H](C(=O)O)c1ccccc1 [Compound 103, (2S)-{[(2S)-2-{[(4-bromophenyl)carbamoyl]amino}-4-methylpentanoyl]amino} (phenyl)ethanoic acid]"
5,0.81,"CC(C)C[C@H](NC(=O)Nc1ccc(Br)cc1)C(=O)NCc1nnn[nH]1 [Compound 104, (2S)-2-{[(4-bromophenyl)carbamoyl]amino}-4-methyl-N-(1H-tetrazol-5-ylmethyl)pentanamide]"
6,0.93,"CC1(CCc2ccccc2O)NC(=O)N(NC(=O)Nc2ccc(Br)cc2)C1=O (centres unmarked) [Compound 109, 1-(4-bromophenyl)-3-{4-[2-(2-hydroxyphenyl)ethyl]-4-methyl-2,5-dioxoimidazolidin-1-yl}urea]"
7,0.98,"CC(C)CC(C)(NC(=O)Nc1ccc(Br)cc1)C(=O)O (centres unmarked) [Compound 110, 2-{[(4-bromophenyl)carbamoyl]amino}-2,4-dimethylpentanoic acid]"
8,0.99,"CC(C)CC(C)(NC(=O)Nc1ccc(Br)cc1)C(=O)NCC(=O)O (centres unmarked) [Compound 111, [(2-{[(4-bromophenyl)carbamoyl]amino}-2,4-dimethylpentanoyl)amino] acetic acid]"
9,100,CCC(CC)(NC(=O)Nc1ccc(Br)cc1)C(=O)NCC(=O)O [Compound 113]
10,0.99,"CC(C)C[C@H](NC(=O)Nc1ccc(Br)cc1)C(=O)NCC(=O)N(C)C [Compound 120, (2S)-2-{[(4-bromophenyl)carbamoyl]amino}-N-[2-(dimethylamino)-2-oxoethyl]-4-methylpentanamide]"
11,0.93,"CC(C)C[C@H](NC(=O)Nc1ccc(I)cc1)C(=O)O [Compound 121, (2S)-2-{[(4-iodophenyl)carbamoyl]amino}-4-methylpentanoic acid]"
12,1.0,"CCC[C@H](NC(=O)Nc1ccc(Br)cc1)C(=O)NCP(=O)(OC(C)C)OC(C)C [Compound 125, dipropan-2-yl ({[(2S)-2-{[(4-bromophenyl)carbamoyl]amino}pentanoyl]amino}methyl) phosphonate]"
13,0.91,"CC(C)C[C@H](NC(=O)Nc1ccc(Br)cc1)C(=O)NCS(=O)(=O)O [Compound 127, {[(2S)-2-{[(4-bromophenyl)carbamoyl]amino}4-methylpentanoyl]amino} methanesulfonic acid]"
14,0.92,"CSc1ccc(NC(=O)N[C@@H](CC(C)C)C(=O)O)cc1 [Compound 128, (2S)-4-methyl-2-({[4-(methylsulfanyl)phenyl]carbamoyl}amino)pentanoic acid]"
15,1.0,"CSc1ccc(NC(=O)N[C@@H](CC(C)C)C(=O)NCC(=O)O)cc1 [Compound 130, {[(2S)-4-methyl-2-({[4-(methylsulfanyl)phenyl]carbamoyl}amino)pentanoyl]amino}acetic acid]"
16,1.0,"CC(C)C[C@H](NC(=O)Nc1ccc(Br)cc1)C(=O)NCP(=O)(OC(C)C)OC(C)C [Compound 131, dipropan-2-yl({[(2S)-2-{[(4-bromophenyl)carbamoyl]amino}-4-methylpentanoyl]amino}methyl)phosphonate]"
17,0.86,"CC(C)C1(CO)NC(=O)N(NC(=O)Nc2ccc(Br)cc2)C1=O (centres unmarked) [Compound 132, 1-(4-bromophenyl)-3[4-(hydroxymethyl)-2,5-dioxo-4-(propan-2-yl)imidazolidin-1-yl]urea]"
18,1.0,"CC(C)C1(CC(=O)NCCO)NC(=O)N(NC(=O)Nc2ccc(Br)cc2)C1=O (centres unmarked) [Compound 133, 2-[1-{[(4-bromophenyl)carbamoyl]amino}-2,5-dioxo-4-(propan-2-yl)imidazolidin-4-yl]-N-(2-hydroxyethyl)acetamide]"
19,0.96,"CC(C)C[C@H](NC(=O)Nc1ccc(C(F)(F)F)cc1)C(=O)NCc1nnn[nH]1 [Compound 136, (2S)-4-methyl-N-(1H-tetrazol-5-ylmethyl)-2-({[4-(trifluoromethyl)phenyl]carbamoyl}amino)pentanamide]"

# — patent US10434112B2, “Use of agonists of formyl peptide receptor 2 for treating dermatological diseases” (Allergan, Inc., priority 2013, dated 2019)
